Results reported in patent US11739098B2 (BRISTOL-MYERS SQUIBB COMPANY, priority 2017, dated 2023).

How the values were obtained:
Format in all cases: cell-based
human TLR8 = biological target: T1, human TLR8 (Homo sapiens, UniProt Q9NR97); test: TLR8 inhibition reporter assay (HEK-Blue cells, SEAP reporter, R848 stimulation); conditions: HEK-Blue cells overexpressing human TLR8, SEAP reporter, R848 15.9 μM
T1 construct: host or cells: HEK-Blue cells (HEK293-derived reporter line)
T1 sequence (Q9NR97 27-1041): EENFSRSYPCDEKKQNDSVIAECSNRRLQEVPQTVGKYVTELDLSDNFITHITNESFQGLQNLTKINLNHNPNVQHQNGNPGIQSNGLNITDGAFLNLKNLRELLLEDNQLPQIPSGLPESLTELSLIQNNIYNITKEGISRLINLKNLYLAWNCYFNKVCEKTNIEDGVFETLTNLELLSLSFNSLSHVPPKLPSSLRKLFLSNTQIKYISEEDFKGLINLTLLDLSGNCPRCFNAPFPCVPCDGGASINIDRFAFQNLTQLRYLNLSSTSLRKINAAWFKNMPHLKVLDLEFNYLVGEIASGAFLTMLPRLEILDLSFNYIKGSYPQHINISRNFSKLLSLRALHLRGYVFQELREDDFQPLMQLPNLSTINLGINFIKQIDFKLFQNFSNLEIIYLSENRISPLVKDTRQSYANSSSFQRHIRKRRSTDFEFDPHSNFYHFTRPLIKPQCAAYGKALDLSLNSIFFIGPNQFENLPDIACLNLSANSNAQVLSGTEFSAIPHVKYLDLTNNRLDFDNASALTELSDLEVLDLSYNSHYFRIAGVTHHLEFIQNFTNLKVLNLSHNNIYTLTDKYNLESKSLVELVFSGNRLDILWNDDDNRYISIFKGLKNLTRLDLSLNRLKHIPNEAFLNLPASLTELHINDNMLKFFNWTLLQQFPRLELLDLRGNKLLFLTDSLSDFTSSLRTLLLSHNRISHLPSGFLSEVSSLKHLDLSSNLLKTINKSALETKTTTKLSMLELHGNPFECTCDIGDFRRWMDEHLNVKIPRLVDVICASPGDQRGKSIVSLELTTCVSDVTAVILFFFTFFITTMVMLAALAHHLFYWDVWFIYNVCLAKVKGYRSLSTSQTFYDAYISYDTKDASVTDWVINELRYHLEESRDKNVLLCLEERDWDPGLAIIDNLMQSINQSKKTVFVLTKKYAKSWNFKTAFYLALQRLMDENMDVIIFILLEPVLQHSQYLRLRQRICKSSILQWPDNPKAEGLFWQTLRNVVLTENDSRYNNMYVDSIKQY
Summary of the method: (§1)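 HEK-Blue cells overexpressing human TLR7, TLR8 or TLR9 (NF-κB/AP-1-driven SEAP) pre-treated 30 min at room temperature with compound (0.05 nM–50 μM), then stimulated with gardiquimod 7.5 μM (TLR7), R848 15.9 μM (TLR8) or ODN2006 5 nM (TLR9). SEAP read colorimetrically after 22 h at 37 °C; % inhibition calculated.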

human TLR9 = biological target: T2, human TLR9 (Homo sapiens, UniProt Q9NR96); test: TLR9 inhibition reporter assay (HEK-Blue cells, SEAP reporter, ODN2006 stimulation); conditions: HEK-Blue cells overexpressing human TLR9, SEAP reporter, ODN2006 5 nM
T2 construct: host or cells: HEK-Blue cells (HEK293-derived reporter line)
T2 sequence (Q9NR96 26-1032): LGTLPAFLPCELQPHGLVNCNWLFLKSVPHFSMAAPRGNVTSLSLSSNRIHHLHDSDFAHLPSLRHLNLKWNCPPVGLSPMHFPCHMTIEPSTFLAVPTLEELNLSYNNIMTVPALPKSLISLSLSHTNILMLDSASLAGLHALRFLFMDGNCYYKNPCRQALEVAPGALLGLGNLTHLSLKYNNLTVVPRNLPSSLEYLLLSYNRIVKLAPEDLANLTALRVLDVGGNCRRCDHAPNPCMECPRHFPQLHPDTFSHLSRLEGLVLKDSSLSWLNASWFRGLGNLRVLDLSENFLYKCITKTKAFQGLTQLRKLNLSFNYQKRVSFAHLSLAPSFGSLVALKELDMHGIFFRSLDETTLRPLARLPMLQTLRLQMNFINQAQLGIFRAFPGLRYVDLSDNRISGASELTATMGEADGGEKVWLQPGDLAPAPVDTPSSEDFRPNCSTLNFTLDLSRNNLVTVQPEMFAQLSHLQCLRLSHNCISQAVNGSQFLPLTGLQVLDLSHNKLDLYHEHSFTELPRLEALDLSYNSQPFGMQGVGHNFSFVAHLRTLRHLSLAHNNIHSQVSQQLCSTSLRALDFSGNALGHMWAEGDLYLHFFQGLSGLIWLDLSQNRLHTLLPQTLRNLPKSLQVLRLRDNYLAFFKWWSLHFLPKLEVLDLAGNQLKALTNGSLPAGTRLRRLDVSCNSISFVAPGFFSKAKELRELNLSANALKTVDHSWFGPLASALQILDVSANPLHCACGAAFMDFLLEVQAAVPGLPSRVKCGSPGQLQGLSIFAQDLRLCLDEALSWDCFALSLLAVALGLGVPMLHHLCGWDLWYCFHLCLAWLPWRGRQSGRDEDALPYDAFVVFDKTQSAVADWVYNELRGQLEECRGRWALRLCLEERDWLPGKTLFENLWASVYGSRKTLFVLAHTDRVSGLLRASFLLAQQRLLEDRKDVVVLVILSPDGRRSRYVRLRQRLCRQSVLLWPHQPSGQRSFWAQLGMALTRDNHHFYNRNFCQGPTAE
Summary of the method: as §1

human TLR7 = biological target: T3, human TLR7 (Homo sapiens, UniProt Q9NYK1); test: TLR7 inhibition reporter assay (HEK-Blue cells, SEAP reporter, gardiquimod stimulation); conditions: HEK-Blue cells overexpressing human TLR7, SEAP reporter, gardiquimod 7.5 μM
T3 construct: host or cells: HEK-Blue cells (HEK293-derived reporter line)
T3 sequence (Q9NYK1 27-1049): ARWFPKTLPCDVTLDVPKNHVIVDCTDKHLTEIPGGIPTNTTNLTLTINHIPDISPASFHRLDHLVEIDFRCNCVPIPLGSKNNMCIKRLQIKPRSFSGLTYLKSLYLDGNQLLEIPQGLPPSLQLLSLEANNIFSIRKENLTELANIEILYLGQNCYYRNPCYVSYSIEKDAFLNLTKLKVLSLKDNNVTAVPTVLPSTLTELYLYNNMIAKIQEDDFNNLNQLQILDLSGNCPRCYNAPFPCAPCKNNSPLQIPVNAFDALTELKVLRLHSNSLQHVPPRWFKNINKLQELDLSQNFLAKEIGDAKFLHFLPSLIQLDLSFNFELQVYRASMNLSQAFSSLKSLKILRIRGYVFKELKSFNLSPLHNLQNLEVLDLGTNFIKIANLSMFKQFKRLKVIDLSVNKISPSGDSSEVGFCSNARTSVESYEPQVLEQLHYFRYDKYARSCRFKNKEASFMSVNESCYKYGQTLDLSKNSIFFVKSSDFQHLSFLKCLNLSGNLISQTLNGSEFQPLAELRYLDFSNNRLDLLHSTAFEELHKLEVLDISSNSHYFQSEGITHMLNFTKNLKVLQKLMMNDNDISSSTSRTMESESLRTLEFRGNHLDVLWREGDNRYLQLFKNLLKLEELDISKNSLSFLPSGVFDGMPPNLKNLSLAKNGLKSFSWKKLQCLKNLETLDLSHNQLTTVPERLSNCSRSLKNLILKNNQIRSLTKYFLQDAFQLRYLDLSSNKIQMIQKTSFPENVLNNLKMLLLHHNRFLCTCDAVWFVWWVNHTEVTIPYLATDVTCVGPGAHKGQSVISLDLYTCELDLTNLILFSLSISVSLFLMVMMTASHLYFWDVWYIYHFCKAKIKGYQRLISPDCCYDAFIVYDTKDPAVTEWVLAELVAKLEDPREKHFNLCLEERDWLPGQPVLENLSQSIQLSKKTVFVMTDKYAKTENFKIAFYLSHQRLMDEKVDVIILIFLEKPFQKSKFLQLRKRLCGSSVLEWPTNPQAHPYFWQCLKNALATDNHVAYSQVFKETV
Summary of the method: as §1

Compound	IC50 (human TLR8) [nM]	IC50 (human TLR9) [nM]	IC50 (human TLR7) [nM]
Cc1c(-c2ccnc3[nH]ccc23)[nH]c2ccc(C3CCN(C4CCN(CC(C)C)CC4)CC3)cc12 [Example 812, 4-(5-(1′-isobutyl-[1,4′-bipiperidin]-4-yl)-3-methyl-1H-indol-2-yl)-1H-pyrrolo[2,3-b]pyridine]	< 100	< 100	< 100
CC(C)c1c(-c2ccnc3[nH]ncc23)[nH]c2ccc(C3CCN(C4CCNCC4)CC3)cc12 [Example 832, 4-(5-([1,4′-bipiperidin]-4-yl)-3-isopropyl-1H-indol-2-yl)-1H-pyrazolo[3,4-b]pyridine]	< 100	100 to 1000	< 100
CC(C)c1c(-c2ccc3[nH]c(=O)oc3c2)[nH]c2ccc(C3CCNCC3)cc12 [Example 10, 6-(3-isopropyl-5-(piperidin-4-yl)-1H-indol-2-yl)benzo[d]oxazol-2(3H)-one]	< 100	100 to 1000	< 100
CNC(=O)CN1CCC(c2ccc3[nH]c(-c4cc(C)c5oc(C)nc5c4)c(C(C)C)c3c2)CC1 [Example 339, 2-(4-(2-(2,7-dimethylbenzo[d]oxazol-5-yl)-3-isopropyl-1H-indol-5-yl)piperidin-1-yl)-N-methylacetamide]	100 to 1000	1000 to 50000	< 100
Cc1cc2ncnn2nc1-c1[nH]c2ccc(C3CCN(C4CCOCC4)CC3)cc2c1C(C)C [Example 687, 6-(3-isopropyl-5-(1-(tetrahydro-2H-pyran-4-yl)piperidin-4-yl)-1H-indol-2-yl)-7-methyl-[1,2,4]triazolo[1,5-b]pyridazine]	< 100	1000 to 50000	< 100
Cc1nc(CN2CCC(c3ccc4[nH]c(-c5ccnc6[nH]ncc56)c(C(C)C)c4c3)CC2)c2ccccn12 [Example 868, 4-(3-isopropyl-5-(1-((3-methylimidazo[1,5-a]pyridin-1-yl)methyl)piperidin-4-yl)-1H-indol-2-yl)-1H-pyrazolo[3,4-b]pyridine]	< 100	100 to 1000	< 100
Cc1nc2c(-c3[nH]c4ccc(C5CCNCC5)cc4c3C)ccnc2[nH]1 [Example 232, 2-methyl-7-(3-methyl-5-(piperidin-4-yl)-1H-indol-2-yl)-3H-imidazo[4,5-b]pyridine]	1000 to 50000	100 to 1000	1000 to 50000
CC(C)c1c(-c2cnc3ncnn3c2)[nH]c2ccc(C3CCN(C4COC4)CC3)cc12 [Example 721, 6-(3-isopropyl-5-(1-(oxetan-3-yl)piperidin-4-yl)-1H-indol-2-yl)-[1,2,4]triazolo[1,5-a]pyrimidine]	100 to 1000	1000 to 50000	< 100
Cc1cn2cc(-c3[nH]c4ccc(C5CCN(CC(=O)N(C)C)CC5)cc4c3C(C)C)c(C)cc2n1 [Example 375, 2-(4-(2-(2,7-dimethylimidazo[1,2-a]pyridin-6-yl)-3-isopropyl-1H-indol-5-yl)piperidin-1-yl)-N,N-dimethylacetamide]	100 to 1000	< 100	< 100
CC(C)c1c(-c2ccnc3cn[nH]c23)[nH]c2ccc(C3CCNCC3)cc12 [Example 54, 7-(3-isopropyl-5-(piperidin-4-yl)-1H-indol-2-yl)-1H-pyrazolo[4,3-b]pyridine]	< 100	100 to 1000	< 100
CNC(=O)CN1CCC(c2ccc3[nH]c(-c4cc(C)c5nccnc5c4)c(C(C)C)c3c2)CC1 [Example 394, 2-(4-(3-isopropyl-2-(8-methylquinoxalin-6-yl)-1H-indol-5-yl)piperidin-1-yl)-N-methylacetamide]	100 to 1000	1000 to 50000	< 100
CC(C)c1c(-c2ccc3c(c2)oc(=O)n3C)[nH]c2ccc(C3CCNCC3)cc12 [Example 89, 6-(3-isopropyl-5-(piperidin-4-yl)-1H-indol-2-yl)-3-methylbenzo[d]oxazol-2(3H)-one]	< 100	100 to 1000	100 to 1000
Cc1cc(-c2[nH]c3ccc(C4CCN(CC(C)(C)O)CC4)cc3c2C(C)C)cc2cnn(C)c12 [Example 762, 1-(4-(2-(1,7-dimethyl-1H-indazol-5-yl)-3-isopropyl-1H-indol-5-yl)piperidin-1-yl)-2-methylpropan-2-ol]	100 to 1000	1000 to 50000	100 to 1000
CN(C)CC(=O)N1CCC(c2ccc3[nH]c(-c4ccn5ccnc5c4)c(CC(F)F)c3c2)CC1 [Example 571, 1-(4-(3-(2,2-difluoroethyl)-2-(imidazo[1,2-a]pyridin-7-yl)-1H-indol-5-yl)piperidin-1-yl)-2-(dimethylamino)ethan-1-one]	100 to 1000	< 100	< 100
Cc1cc(-c2[nH]c3ccc(C4CCNCC4)cc3c2C(C)C)cn2cc(C(=O)NCC(C)(C)O)nc12 [Example 270, N-(2-hydroxy-2-methylpropyl)-6-(3-isopropyl-5-(piperidin-4-yl)-1H-indol-2-yl)-8-methylimidazo[1,2-a]pyridine-2-carboxamide]	100 to 1000	1000 to 50000	100 to 1000
